Results published in patent US10934302B1, “SHP2 phosphatase inhibitors and methods of use thereof” (Relay Therapeutics, Inc., priority 2018, dated 2021).
pIC50: −log10 of the molar value.

Target: SHP2 (Homo sapiens (Human), UniProt Q06124)
Experiment: SHP2 allosteric inhibition assay (DiFMUP prompt fluorescence)
Assay type: biochemical
Details: not given

Sequence of SHP2 (Q06124 whole entry): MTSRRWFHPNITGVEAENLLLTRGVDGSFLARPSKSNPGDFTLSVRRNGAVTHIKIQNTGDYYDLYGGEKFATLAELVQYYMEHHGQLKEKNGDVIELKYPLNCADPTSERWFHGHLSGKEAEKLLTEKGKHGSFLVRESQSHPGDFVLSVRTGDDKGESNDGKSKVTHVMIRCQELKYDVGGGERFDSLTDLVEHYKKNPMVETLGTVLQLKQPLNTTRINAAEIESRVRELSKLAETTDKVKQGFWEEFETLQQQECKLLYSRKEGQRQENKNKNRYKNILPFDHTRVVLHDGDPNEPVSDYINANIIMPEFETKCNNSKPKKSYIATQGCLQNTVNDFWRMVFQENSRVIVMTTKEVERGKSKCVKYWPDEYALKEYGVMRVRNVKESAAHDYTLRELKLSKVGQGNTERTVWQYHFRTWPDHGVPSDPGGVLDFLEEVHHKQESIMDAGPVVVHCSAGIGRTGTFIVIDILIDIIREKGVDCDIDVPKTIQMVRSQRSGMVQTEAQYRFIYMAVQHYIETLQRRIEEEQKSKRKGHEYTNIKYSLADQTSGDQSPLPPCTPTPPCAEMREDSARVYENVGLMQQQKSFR

Row | Compound | pIC50
1 | Cc1ccc(C(=O)CSc2cnc(N3CCC4(CC3)Cc3ccccc3[C@H]4N)cn2)cc1 [Example 267, (S)-2-((5-(1-amino-1,3-dihydrospiro[indene-2,4′-piperidin]-1′-yl)pyrazin-2-yl)thio)-1-(p-tolyl)ethan-1-one] | > 7.30

Same assay, conditions: 0.25 nM SHP2 activated with 0.5 μM peptide IRS1_pY1172(dPEG8)pY1222; substrate DiFMUP

Row | Compound | pIC50
2 | Nc1nccc(Sc2cnc3c(n2)OC[C@H]2C[C@@]4(CCN32)Oc2ccccc2[C@H]4N)c1Cl [Example 222] | ≥ 7.30
3 | Cc1c(Sc2ccnc(N)c2Cl)nc2sc(N3CCC4(CC3)Cc3ccccc3[C@H]4N)nn12 [Example 223] | ≥ 7.30
4 | Nc1nccc(Sc2ccc(N3CCC4(CC3)Oc3cc(F)ccc3[C@H]4N)cn2)c1Cl [Example 224] | 6.00 to 7.30
5 | Nc1nccc(Sc2ccc(N3CCC4(CC3)Oc3ccc(F)cc3[C@H]4N)cn2)c1Cl [Example 225] | < 5.00
6 | CNC(=O)c1cc(C)nc(N2CCC3(CC2)Cc2ccccc2[C@H]3N)c1 [Example 228] | < 5.00
7 | N[C@@H]1c2ccccc2CC12CCN(C1=Nc3ncc(C4CC4)cc3C1)CC2 [Example 229] | ≥ 7.30
8 | N[C@@H]1c2ccccc2CC12CCN(c1cc(C(F)(F)F)c3nncn3n1)CC2 [Example 230] | 5.00 to 6.00
9 | Nc1nccc(Sc2cnc(C34C[C@@H]5C[C@@]6(Cc7ccccc7[C@H]6N)C[C@H](C3)N54)cn2)c1Cl (stereo partly shown) [Example 231] | < 5.00
10 | Nc1nccc(Sc2cnc(C34C[C@@H]5C[C@@]6(C[C@H](C3)N54)Oc3ccccc3[C@H]6N)cn2)c1Cl (stereo partly shown) [Example 232] | ≥ 7.30
11 | N[C@@H]1c2ccccc2CC12CCN(c1cnc(SC3CCCCC3)cn1)CC2 [Example 233, (3S)-1′-[5-(cyclohexylsulfanyl)pyrazin-2-yl]-1,3-dihydrospiro[indene-2,4′-piperidin]-3-amine] | ≥ 7.30
12 | N[C@@H]1c2ccccc2CC12CCN(c1cnc(S[C@@H]3CCOC3)cn1)CC2 [Example 235] | < 5.00
13 | N[C@@H]1c2ccccc2CC12CCN(c1cnc(SC3CCC3)cn1)CC2 [Example 236] | ≥ 7.30
14 | N[C@@H]1c2ccccc2CC12CCN(c1ncc(SCC3CC3)c(=O)[nH]1)CC2 [Example 237] | ≥ 7.30
15 | Cn1c(N2CCC3(CC2)Cc2ccccc2[C@H]3N)ncc(SCC2CC2)c1=O [Example 238] | ≥ 7.30
16 | N[C@@H]1c2cc(F)ccc2OC12CCN(c1cnc(SCC3CC3)cn1)CC2 [Example 239] | 6.00 to 7.30
17 | N[C@@H]1c2ccc(F)cc2OC12CCN(c1cnc(SCC3CC3)cn1)CC2 [Example 240] | ≥ 7.30
18 | N[C@@H]1c2ccccc2CC12CCN(c1cnc(SC3CC3)cn1)CC2 [Example 241, (S)-1′-(5-(cyclopropylthio)pyrazin-2-yl)-1,3-dihydrospiro[indene-2,4′-piperidin]-1-amine] | ≥ 7.30
19 | Cn1c(N2CCC3(CC2)Cc2ccccc2[C@H]3N)ncc(Sc2cccc(Cl)c2Cl)c1=O [Example 242, (S)-2-(1-amino-1,3-dihydrospiro[indene-2,4′-piperidin]-1′-yl)-5-((2,3-dichlorophenyl)thio)-3-methylpyrimidin-4(3H)-one] | ≥ 7.30
20 | N[C@@H]1c2ccccc2CC12CCN(c1ncc(SCC3CC3)nc1CO)CC2 [Example 244, (S)-(3-(1-amino-1,3-dihydrospiro[indene-2,4′-piperidin]-1′-yl)-6-((cyclopropylmethyl)thio)pyrazin-2-yl)methanol] | ≥ 7.30
21 | Cc1nc2c(N3CCCc4c3ccn(C)c4=O)n[nH]c2nc1N1CCC2(CC1)Cc1cc(F)ccc1[C@H]2N [Example 245] | 5.00 to 6.00
22 | Cc1nc2c(N3CCCc4c3ccn(C)c4=O)n[nH]c2nc1N1CCC2(CC1)Cc1ccc(F)cc1[C@H]2N [Example 246, 1-{6-[(3S)-3-amino-5-fluoro-1,3-dihydrospiro[indene-2,4′-piperidin]-1′-yl]-5-methyl-1H-pyrazolo[3,4-b]pyrazin-3-yl}-6-methyl-1,2,3,4,5,6-hexahydro-1,6-naphthyridin-5-one] | < 5.00

Row | Compound | pIC50
23 | Cc1nc2c(N3CCCc4c3ccn(C)c4=O)n[nH]c2nc1N1CCC2(CC1)Cc1ccccc1[C@H]2N [Example 247, 1-{6-[(3S)-3-amino-1,3-dihydrospiro[indene-2,4′-piperidin]-1′-yl]-5-methyl-1H-pyrazolo[3,4-b]pyrazin-3-yl}-6-methyl-1,2,3,4,5,6-hexahydro-1,6-naphthyridin-5-one] | 5.00 to 6.00
24 | Cc1nc(SC2CCCC2)cnc1N1CCC2(CC1)Cc1ccccc1[C@H]2N [Example 249, (3S)-1′-[5-(cyclopentylsulfanyl)-3-methylpyrazin-2-yl]-1,3-dihydrospiro[indene-2,4′-piperidin]-3-amine] | ≥ 7.30
25 | Cc1nc(N2CCC3(CC2)Cc2ccccc2[C@H]3N)cnc1SC1CCCC1 [Example 250, (3S)-1′-[5-(cyclopentylsulfanyl)-6-methylpyrazin-2-yl]-1,3-dihydrospiro[indene-2,4′-piperidin]-3-amine] | ≥ 7.30
26 | N[C@@H]1c2ccccc2CC12CCN(c1cnc(OC3CCCC3)cn1)CC2 [Example 251, (3S)-1′-[5-(cyclopentyloxy)pyrazin-2-yl]-1,3-dihydrospiro[indene-2,4′-piperidin]-3-amine] | < 5.00
27 | N[C@@H]1c2ccccc2CC12CCN(c1nn3cc(C4CCCC4)nc3s1)CC2 [Example 252, (1S)-1′-{6-cyclopentylimidazo[2,1-b][1,3,4]thiadiazol-2-yl}-1,3-dihydrospiro[indene-2,4′-piperidin]-1-amine] | ≥ 7.30
28 | Cc1nc2c(N3CCCC3)n[nH]c2nc1N1CCC2(CC1)Cc1ccccc1[C@H]2N [Example 254, (1S)-1′-[5-methyl-3-(pyrrolidin-1-yl)-1H-pyrazolo[3,4-b]pyrazin-6-yl]-1,3-dihydrospiro[indene-2,4′-piperidin]-1-amine] | < 5.00
29 | N[C@@H]1c2ccccc2CC12CCN(c1nc3[nH]nc(N4CCCCC4)c3nc1C1CC1)CC2 [Example 255, (3S)-1′-[5-cyclopropyl-3-(piperidin-1-yl)-1H-pyrazolo[3,4-b]pyrazin-6-yl]-1,3-dihydrospiro[indene-2,4′-piperidin]-3-amine] | ≥ 7.30
30 | N[C@@H]1c2ccccc2CC12CCN(c1cnc(C(=O)c3ccccc3)cn1)CC2 [Example 256, (S)-(5-(1-amino-1,3-dihydrospiro[indene-2,4′-piperidin]-1′-yl)pyrazin-2-yl)(phenyl)methanone] | ≥ 7.30
31 | Nc1nccc(Sc2ccc(N3CCC4(CC3)Cc3ccccc3[C@H]4N)c(CO)n2)c1Cl [Example 258, {3-[(3S)-3-amino-1,3-dihydrospiro[indene-2,4′-piperidin]-1′-yl]-6-[(2-amino-3-chloropyridin-4-yl)sulfanyl]pyridin-2-yl}methanol] | ≥ 7.30
32 | C[C@@H](O)c1nc(Sc2ccnc(Cl)c2Cl)cnc1N1CCC2(CC1)Cc1ccccc1[C@H]2N [Example 259, (1R)-1-{3-[(3S)-3-amino-1,3-dihydrospiro[indene-2,4′-piperidin]-1′-yl]-6-[(2,3-dichloropyridin-4-yl)sulfanyl]pyrazin-2-yl}ethan-1-ol] | ≥ 7.30
33 | N[C@@H]1c2ccccc2CC12CCN(c1ncc(Sc3cccc(Cl)c3Cl)c(=O)[nH]1)CC2 [Example 261, 2-[(3S)-3-amino-1,3-dihydrospiro[indene-2,4′-piperidin]-1′-yl]-5-[(2,3-dichlorophenyl)sulfanyl]-3,4-dihydropyrimidin-4-one] | ≥ 7.30
34 | COc1nc(N2CCC3(CC2)Cc2ccccc2[C@H]3N)ncc1Sc1cccc(Cl)c1Cl [Example 262, (S)-1′-(5-((2,3-dichlorophenyl)thio)-4-methoxypyrimidin-2-yl)-1,3-dihydrospiro[indene-2,4′-piperidin]-1-amine] | 6.00 to 7.30
35 | N[C@@H]1c2ccccc2CC12CCN(c1cnc(SCc3cccc(Cl)n3)cn1)CC2 [Example 263, (S)-1′-(5-(((6-chloropyridin-2-yl)methyl)thio)pyrazin-2-yl)-1,3-dihydrospiro[indene-2,4′-piperidin]-1-amine] | ≥ 7.30
36 | N[C@@H]1c2ccccc2CC12CCN(c1cnc(SCC3CCCC3)cn1)CC2 [Example 264, (S)-1′-(5-((cyclopentylmethyl)thio)pyrazin-2-yl)-1,3-dihydrospiro[indene-2,4′-piperidin]-1-amine] | ≥ 7.30
37 | N[C@@H]1c2ccccc2CC12CCN(c1cnc(SCCc3ccccc3)cn1)CC2 [Example 265, (S)-1′-(5-(phenethylthio)pyrazin-2-yl)-1,3-dihydrospiro[indene-2,4′-piperidin]-1-amine] | ≥ 7.30
38 | Cc1nc(N2CCC3(CC2)Oc2ccccc2[C@H]3N)c(CO)nc1-c1cccc(Cl)c1Cl [Example 268, (R)-(3-(3-amino-3H-spiro[benzofuran-2,4′-piperidin]-1′-yl)-6-(2,3-dichlorophenyl)-5-methylpyrazin-2-yl)methanol] | ≥ 7.30
39 | Cc1nc(N2CCC3(CC2)Cc2c(F)cccc2[C@H]3N)c(CO)nc1-c1cccc(Cl)c1Cl [Example 269, (S)-(3-(1-amino-4-fluoro-1,3-dihydrospiro[indene-2,4′-piperidin]-1′-yl)-6-(2,3-dichlorophenyl)-5-methylpyrazin-2-yl)methanol] | ≥ 7.30
40 | Cc1cc(-c2nccs2)cc(N2CCC3(CC2)Cc2ccccc2[C@H]3N)n1 [Example 270, (S)-1′-(6-methyl-4-(thiazol-2-yl)pyridin-2-yl)-1,3-dihydrospiro[indene-2,4′-piperidin]-1-amine] | 5.00 to 6.00
41 | Cc1cc(N2CCC3(CC2)Cc2ccccc2[C@H]3N)cc(S(C)(=O)=O)c1 [Example 271, (S)-1′-(3-methyl-5-(methylsulfonyl)phenyl)-1,3-dihydrospiro[indene-2,4′-piperidin]-1-amine] | ≥ 7.30
42 | N[C@@H]1c2ccccc2OC12CCN(c1cnc(SCC3CC3)cn1)CC2 [Example 273, (R)-1′-(5-((cyclopropylmethyl)thio)pyrazin-2-yl)-3H-spiro[benzofuran-2,4′-piperidin]-3-amine] | ≥ 7.30
43 | N[C@@H]1c2ccccc2O[C@]12C[C@H]1CC[C@@H](C2)N1c1cnc(SCC2CC2)cn1 [Example 274, (1′R,2r,3R,5'S)-8′-(5-((cyclopropylmethyl)thio)pyrazin-2-yl)-3H-8′-azaspiro[benzofuran-2,3′-bicyclo[3.2.1]octan]-3-amine] | 5.00 to 6.00
